± gives the standard deviation of the averaged measurements.

Compound in one test: COCC[n+]1c2c(n(Cc3cnccn3)c1C)C(=O)c1ccccc1C2=O [YM155]
Briefly: surviving fraction relative to DMSO-only wells; higher = less growth inhibition. To be noted: exposure time: 5 days. A digest of the protocol:
(§1)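 For each tumour cell line, log-phase cells were put into 384-well plates at 250–500 cells per well, then after 24 hours exposed continuously for five days to inhibitors at 0.5, 1, 5, 10, 50, 100, 500 and 1000 nM. Viability was assessed by CellTiter-Glo luminescence, with surviving fraction expressed relative to the median of DMSO-only wells. Lines were screened three times and retained only if replicate Pearson r exceeded 0.7 and median Z' exceeded 0.3.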

Compound in another test: C[C@]1(O)C[C@@H](c2nc(-c3ccc4ccc(-c5ccccc5)nc4c3)c3c(N)nccn32)C1 [OSI-906]
The test is described as above. To be noted: exposure time: 5 days. The method in brief:
as §1

As for SCC003 HEADNECK, the surviving fraction with YM155 (0.5 nM) is 1.072 ± 0.0061; in the test with YM155 (1 nM), 1.02 ± 0.071; in the test with YM155 (5 nM), 0.82 ± 0.12; with YM155 (10 nM), 0.502 ± 0.14; with YM155 (50 nM), 0.086 ± 0.0066; with YM155 (100 nM), 0.052 ± 0.0046. The surviving fraction was found to be 0.024 in the test with YM155 (500 nM); 0.025 ± 0.0017 with YM155 (1000 nM); 0.796 ± 0.018 in the test with OSI-906 (0.5 nM); 0.865 ± 0.028 with OSI-906 (1 nM); 0.88 ± 0.099 in the test with OSI-906 (5 nM); 0.87 ± 0.011 in the test with OSI-906 (10 nM). Also, the surviving fraction with OSI-906 (50 nM) amounted to 1.02 ± 0.022; in the test with OSI-906 (100 nM), 1.04 ± 0.013; with OSI-906 (500 nM), 0.976 ± 0.04; in the test with OSI-906 (1000 nM), 0.845 ± 0.04.

With SCC36 HEADNECK, the surviving fraction with YM155 (0.5 nM) worked out at 1.01 ± 0.035; with YM155 (1 nM), 1.02 ± 0.042; in the test with YM155 (5 nM), 1.06 ± 0.14; in the test with YM155 (10 nM), 0.817 ± 0.07; with YM155 (50 nM), 0.261 ± 0.056; in the test with YM155 (100 nM), 0.105 ± 0.0036. Besides, the surviving fraction with YM155 (500 nM) came out at 0.04 ± 0.0056; with YM155 (1000 nM) it was 0.0387 ± 0.0015; with OSI-906 (0.5 nM) it was 0.783 ± 0.039; with OSI-906 (1 nM) it was 0.816 ± 0.062; with OSI-906 (5 nM), 0.796 ± 0.083; with OSI-906 (10 nM), 0.805 ± 0.055. The surviving fraction with OSI-906 (50 nM) is 0.742 ± 0.076; with OSI-906 (100 nM), 0.834 ± 0.066; with OSI-906 (500 nM), 0.64 ± 0.19; with OSI-906 (1000 nM) it was 0.57 ± 0.046.

With SCC47 HEADNECK, the surviving fraction with YM155 (0.5 nM) amounted to 1.01 ± 0.13; with YM155 (1 nM), 0.998 ± 0.023; with YM155 (5 nM) it was 0.916 ± 0.087; with YM155 (10 nM), 0.435 ± 0.069; with YM155 (50 nM), 0.0263 ± 0.0025; with YM155 (100 nM), 0.021 ± 0.001. Besides, the surviving fraction with YM155 (500 nM) came out at 0.0197 ± 0.00058; in the test with YM155 (1000 nM), 0.023 ± 0.001; with OSI-906 (0.5 nM), 0.976 ± 0.025; in the test with OSI-906 (1 nM), 0.952 ± 0.046; with OSI-906 (5 nM) it was 1.04 ± 0.069; in the test with OSI-906 (10 nM) it was 1.02 ± 0.12. Besides, the surviving fraction with OSI-906 (50 nM) stood at 1.091 ± 0.0056; with OSI-906 (100 nM), 1.07 ± 0.062; with OSI-906 (500 nM) it was 1 ± 0.011; with OSI-906 (1000 nM), 1.04 ± 0.11.

Turning to SG27 HEADNECK, the surviving fraction amounted to 1.13 ± 0.13 with YM155 (0.5 nM); 1.05 ± 0.092 with YM155 (1 nM); 0.813 ± 0.13 with YM155 (5 nM); 0.575 ± 0.066 with YM155 (10 nM); 0.105 ± 0.035 in the test with YM155 (50 nM); 0.0347 ± 0.0038 with YM155 (100 nM). Also, the surviving fraction came to 0.0367 ± 0.02 with YM155 (500 nM); 0.048 ± 0.017 in the test with YM155 (1000 nM); 1.1 ± 0.12 in the test with OSI-906 (0.5 nM); 1.08 ± 0.064 in the test with OSI-906 (1 nM); 0.916 ± 0.071 with OSI-906 (5 nM); 0.966 ± 0.059 with OSI-906 (10 nM). The surviving fraction came to 1 ± 0.054 with OSI-906 (50 nM), 0.946 ± 0.044 in the test with OSI-906 (100 nM), 0.807 ± 0.086 with OSI-906 (500 nM) and 0.617 ± 0.069 in the test with OSI-906 (1000 nM).

For the test system SG28 HEADNECK, the surviving fraction with YM155 (0.5 nM) amounted to 1.07 ± 0.083; in the test with YM155 (1 nM), 1.17 ± 0.066; in the test with YM155 (5 nM), 0.882 ± 0.025; in the test with YM155 (10 nM), 0.631 ± 0.05; with YM155 (50 nM), 0.105 ± 0.005; in the test with YM155 (100 nM) it was 0.058 ± 0.013. For the same test system, the surviving fraction with YM155 (500 nM) is 0.0285 ± 0.00071; with YM155 (1000 nM), 0.033 ± 0.0014; with OSI-906 (0.5 nM), 0.829 ± 0.16; with OSI-906 (1 nM) it was 0.78 ± 0.098; with OSI-906 (5 nM), 0.769 ± 0.16; with OSI-906 (10 nM) it was 0.792 ± 0.02. In addition, the surviving fraction in the test with OSI-906 (50 nM) came out at 0.88 ± 0.06; with OSI-906 (100 nM), 0.867 ± 0.089; in the test with OSI-906 (500 nM), 0.692 ± 0.021; with OSI-906 (1000 nM), 0.547 ± 0.034.

As to SG31 HEADNECK, the surviving fraction with YM155 (0.5 nM) was determined as 1.01 ± 0.095; with YM155 (1 nM) it was 1.07 ± 0.074; in the test with YM155 (5 nM) it was 0.883 ± 0.062; in the test with YM155 (10 nM) it was 0.893 ± 0.11; with YM155 (50 nM) it was 0.391 ± 0.13; with YM155 (100 nM), 0.291 ± 0.15. In addition, the surviving fraction with YM155 (500 nM) was found to be 0.0993 ± 0.037; in the test with YM155 (1000 nM), 0.104 ± 0.064; in the test with OSI-906 (0.5 nM) it was 0.867 ± 0.15; with OSI-906 (1 nM), 0.994 ± 0.057; in the test with OSI-906 (5 nM) it was 0.84 ± 0.045; with OSI-906 (10 nM) it was 0.985 ± 0.056. For the same test system, the surviving fraction in the test with OSI-906 (50 nM) was 1 ± 0.22; with OSI-906 (100 nM) it was 0.833 ± 0.1; in the test with OSI-906 (500 nM), 0.615 ± 0.042; in the test with OSI-906 (1000 nM), 0.493 ± 0.042.

As to SIHA CERVIX, the surviving fraction was determined as 0.917 ± 0.056 in the test with YM155 (0.5 nM); 0.938 ± 0.069 with YM155 (1 nM); 0.977 ± 0.049 with YM155 (5 nM); 0.735 ± 0.011 with YM155 (10 nM); 0.0433 ± 0.0055 in the test with YM155 (50 nM); 0.022 ± 0.002 in the test with YM155 (100 nM). For the same test system, the surviving fraction worked out at 0.0197 ± 0.00058 with YM155 (500 nM); 0.0243 ± 0.0015 with YM155 (1000 nM); 0.931 ± 0.067 with OSI-906 (0.5 nM); 0.888 ± 0.012 with OSI-906 (1 nM); 0.992 ± 0.11 in the test with OSI-906 (5 nM); 0.886 ± 0.056 with OSI-906 (10 nM). For the same test system, the surviving fraction is 1.04 ± 0.057 with OSI-906 (50 nM), 1.01 ± 0.065 with OSI-906 (100 nM), 0.935 ± 0.046 with OSI-906 (500 nM) and 0.966 ± 0.026 with OSI-906 (1000 nM).

Values taken from the supplement of paper PMC6045584.
